Source: patent publication US4185119A, “Antiallergic methods” (priority 1977, dated 1980)
Structures can show the parent of a compound that is named as a salt.

Columns and labels:
[1] = tested on: P.C.A. reaction in Donryu strain rats; assay: Inhibition of P.C.A. reaction in Donryu strain rats, rat reaginic antiserum against egg albumin; format: in vivo; details: Donryu rat (Table 2-I)
Description: (a) Rat reaginic antiserum against egg albumin
A solution of egg albumin (2 mg) in B. pertussis-diphtheria-tetanus mixed vaccine (1 ml.) (made by Takeda Chemical Industries Ltd.) was mixed with an equal volume of incomplete adjuvant (made by Difco Laboratories) to give an emulsion. The emulsion was given subcutaneously in a single dose of 1 ml. divided equally (0.25 ml.) to the four foot pads of male S.D. (Sprague-Dawley) strain rats aged 8 weeks, each weighing about 300 g.
Five days after the administration, a solution of egg albumin (0.5 mg.) in B. pertussis-diphtheria-tetanus mixed vaccine (0.5 ml.) was further given intramuscularly in a single dose of 0.5 ml. divided equally (0.25 ml.) to 2 places of thigh of the same rats.
Three days after the second administration, blood samples were collected from femoral artery of the rats and allowed to stand at ambient temperature for 5 hours. The separated supernatant was centrifuged at 4° C. (10,000 r.p.m.× 1 hour). The antisera thus obtained were stored at -80° C. prior to use.
(b) Inhibitory effect on P.C.A. reaction in Donryu strain rat
The following tests were carried out in substantially the same manner as described in the above item (2)-(a).
(i) Test compound: N:methyllaurotetanine hydrochloride
Test animal: Male Donryu strain rats aged 8 weeks, weighing about 130 g.
Challenge: A normal saline (0.3 ml.) containing egg albumin (4.5 mg.) and Evans blue (1.5 mg.).
(ii) Test commpound: glaucine or boldine
Test animal: Male Donryu strain rats aged 8 weeks, weighing 140-150 g.
Challenge: the same as the above item (b)-(i).

[2] = tested on: P.C.A. reaction in I.C.R. strain mice; assay: Inhibition test of P.C.A. reaction in I.C.R. strain mice, rat hyperimmune antiserum against egg albumin; format: in vivo; details: I.C.R. mouse (Table 3-I)
Description: (c) Inhibition test of P.C.A. reaction in I.C.R. (Institute of Cancer Research) strain mice
(i) Test compound: N-methyllaurotetanine hydrochloride
Fifteen male I.C.R. strain mice aged 7 weeks, weighing about 35 g were divided equally into 3 groups. Each of the groups was composed of 5 mice, (in case of intraperioneal administration of the test compound to the mouse, each of the groups was composed of […]).
Ten-hold diluted solution (0.05 ml.) of the rat hyperimmune antiserum against egg albumin was given intracutaneously to the depilated back of each mouse of Group I and Group II, respectively. On the other hand, a rat normal serum (0.05 ml.) was given intracutaneously to the depilated back of each mouse of Group III. Three hours after the administration, a normal saline (0.1 ml.) containing egg albumin (1.5 mg.) and Evans blue (0.5 mg.) was given intravenously to each mouse of Groups I-III in order to bring about P.C.A., respectively.
Beforehand, 3 hours and 1 hours before the admnistration to bring about P.C.A., a normal saline (0.3 ml.) containing the prescribed amount of N-methyllaurotetanine hydrochloride and carboxymethylcellulose (0.5%) was given orally or intraperitoneally to each mouse of Group I, and a normal saline (0.3 ml.) containing only carboxymethylcellulose (0.5%) was given orally or intraperitoneally to each mouse of Group II.
The procedure followed by the above, was carried out in substantially the same manner as described in the above item (2)-(a). […]

With COc1cc2c(cc1O)CC1c3c(cc(OC)c(OC)c3-2)CCN1C (centres unmarked) [N-Methyllaurotetanine hydrochloride] the “Inhibitory effect on P.C.A. reaction” value ([1]; intraperitoneal, 4 mg/kg) was 30%, the “Inhibitory effect on P.C.A. reaction” value ([1]; intraperitoneal, 13 mg/kg) was 60% and the “Inhibitory effect on P.C.A. reaction” value ([1]; intraperitoneal, 40 mg/kg) was 70%. The “Inhibitory effect on P.C.A. reaction” value ([1]; intravenous, 6.7 mg/kg) was 70%, the “Inhibitory effect on P.C.A. reaction” value ([1]; intravenous, 20 mg/kg) was 100% and the “Inhibitory effect on P.C.A. reaction” value ([1]; oral, 20 mg/kg) was 40%. The “Inhibitory effect on P.C.A. reaction” value ([1]; oral, 66 mg/kg) was 70%, the “Inhibitory effect on P.C.A. reaction” value ([1]; oral, 200 mg/kg) was 90% and the “Inhibitory effect on P.C.A. reaction” value ([2]; intraperitoneal, 3 mg/kg) was 50%. For the same compound, the “Inhibitory effect on P.C.A. reaction” value ([2]; intraperitoneal, 10 mg/kg) was 80%, the “Inhibitory effect on P.C.A. reaction” value ([2]; intraperitoneal, 30 mg/kg) was 95% and the “Inhibitory effect on P.C.A. reaction” value ([2]; oral, 16 mg/kg) was 20%. The “Inhibitory effect on P.C.A. reaction” value ([2]; oral, 48 mg/kg) was 50% and the “Inhibitory effect on P.C.A. reaction” value ([2]; oral, 145 mg/kg) was 70%.
